The assay has as its target T1, PPARγ (Homo sapiens, UniProt P37231).
T1 construct: made in house
T1 sequence (P37231 1-505): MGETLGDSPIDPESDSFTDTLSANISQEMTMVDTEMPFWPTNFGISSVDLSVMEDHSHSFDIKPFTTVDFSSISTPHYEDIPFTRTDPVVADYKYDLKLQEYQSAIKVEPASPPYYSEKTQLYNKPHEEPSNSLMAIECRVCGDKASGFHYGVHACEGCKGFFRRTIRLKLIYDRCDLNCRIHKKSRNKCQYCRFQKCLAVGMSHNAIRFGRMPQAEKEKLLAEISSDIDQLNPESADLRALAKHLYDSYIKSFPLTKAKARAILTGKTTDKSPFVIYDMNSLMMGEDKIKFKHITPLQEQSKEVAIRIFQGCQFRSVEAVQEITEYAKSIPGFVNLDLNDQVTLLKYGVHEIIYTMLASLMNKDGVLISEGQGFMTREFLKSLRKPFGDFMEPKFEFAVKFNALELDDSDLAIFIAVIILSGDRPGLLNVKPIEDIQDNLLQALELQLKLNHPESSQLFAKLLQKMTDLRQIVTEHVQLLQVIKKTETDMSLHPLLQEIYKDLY
The experiment in a line: PPARγ ligand binding assay utilizing [3H]-BRL 49653 as the radioligand (filtration). To be noted: concentration required to reduce by 50% the specific binding of [3H]-BRL 49653. The text has this: The compounds of the present invention can be evaluated for modulation of the PPARγ receptor using assays such as those described in Jiang, et al., Nature 391:82-86 (1998), Ricote, et al., Nature 391:79-82 (1998) and Lehmann, et al., J. Biol. Chem. 270(12): 12953-12956 (1995). Alternatively, the compounds can be evaluated for their ability to displace radiolabeled BRL 49653 from a PPARγ-GST fusion protein as follows:
PPARγ-GST fusion protein (prepared according to standard procedures), [^3H]-BRL 49653 having 50 Ci/mmol specific activity, Polyfiltronics Unifilter 350 filtration plate and glutathione-Sepharose® beads (from Pharmacia: washed twice with 10× binding buffer in which BSA and DTI can be left out).
Binding buffer (10 mM Tris-HCl, pH 8.0, 50 mM KCl, 10 mM DTT, 0.02% BSA and 0.0 1% NP-40) is added in 80-μL amounts to the wells of the filtration plate. The test compound is then added in 10 μL of DMSO. The PPARγ-GST fusion protein and radiolabeled BRL compound are premixed in binding buffer containing 10 mM DTT and added in 10-μL amounts to the wells of the plate to provide final concentrations of 1 µg/well of PPARγ-GST fusion protein and 10 nM [^3H]-BRL 49653 compound. The plate is incubated for 15 min. Glutathione-agarose bead is added in 50 μL of binding buffer, and the plate is vigorously shaken for one hour. The plate is washed four times with 200 μL/well of binding buffer (without BSA and DTT). The bottom of the plate is sealed and 200 μL/well of scintillation cocktail is added. The top of the plate is then sealed and the radioactivity is determined.
IC50 values are defined as the concentration of test compounds required to reduce by 50% the specific binding of [^3H]-BRL 49653 and are represented by (+)<30 μM; (++)<10 μM; (+++)<1 μM.

pIC50: −log10 of the molar value. Bounds are passed on as bounds.

In the case of `CCC(=O)c1nc(NS(=O)(=O)c2ccc(Cl)cc2Cl)ccc1Sc1ccc(S(=O)(=O)N2CCCC2)cc1` [Compound 96, 2,4-Dichloro-N-{6-propionyl-5-[4-(pyrrolidine-1-sulfonyl) -phenylsulfanyl]-pyridin-2-yl}-benzenesulfonamide], the pIC50 (in general, the negative decadic logarithm of the IC50, by convention in mol/L) was more than 6.00.

The molecule `CCCC(=O)c1nc(NS(=O)(=O)c2ccc(C(F)(F)F)cc2Cl)ccc1Sc1ccc(S(=O)(=O)C2CCCC2)cc1` [Compound 114, N-[6-Butyryl-5-(4-cyclopentanesulfonyl-phenylsulfanyl)-pyridin-2-yl]-2-chloro-4-trifluoromethyl-benzenesulfonamide] had a pIC50 of more than 6.00.

`CCCC(=O)c1nc(NS(=O)(=O)c2ccc(Cl)cc2Cl)ccc1Sc1ccc(S(=O)(=O)N2CCCCC2)cc1` [Compound 73, N-{6-Butyryl-5-[4-(piperidine-1-sulfonyl)-phenylsulfanyl]-pyridin-2-yl}-2,4-dichloro-benzenesulfonamide]: the pIC50 is more than 6.00.

With `O=S(=O)(Nc1ccc(Sc2ccc(S(=O)(=O)N3CCOCC3)cc2)c(C(F)(F)F)n1)c1ccc(C(F)(F)F)cc1Cl` [Compound 109, 2-Chloro-N-{5-[4-(morpholine-4-sulfonyl)-phenylsulfanyl]-6-trifluoromethyl-pyridin-2-yl}-4-trifluoromethyl-benzenesulfonamide], the pIC50 is more than 5.00.

`Cc1cc(S(=O)(=O)Nc2nnc(Sc3ccc(S(=O)(=O)N4CCCCC4)cc3)cc2C)c(Cl)cc1Cl` [Compound 139, 2,4-Dichloro-5-methyl-N -{4-methyl-6-[4-(piperidine-1-sulfonyl)-phenylsulfanyl]-pyridazin-3-yl}-benzenesulfonamide] had a pIC50 of more than 6.00.

Regarding `CCCC(=O)c1nc(NS(=O)(=O)c2ccc(Cl)cc2Cl)ccc1Sc1ccc(S(=O)(=O)N2CCOCC2)cc1` [Compound 78, N-{6-Butyryl-5-[4-(morpholine-4-sulfonyl)-phenylsulfanyl]-pyridin-2-yl}-2,4-dichloro-benzenesulfonamide], the pIC50 was more than 6.00.

Molecule `CCCOc1nc(NS(=O)(=O)c2ccc(Cl)cc2Cl)ncc1Oc1ccc(Cl)c(Cl)c1` [Compound 31, 2,4-Dichloro-N-[5-(3,4-dichloro-phenoxy)-4-propoxy-pyrimidin-2-yl]-benzenesulfonamide] had a pIC50 of more than 5.00.

As for `CN(C)c1nc(NS(=O)(=O)c2ccc(Cl)cc2Cl)ncc1Sc1ccc2ccccc2c1` [Compound 26, 2,4-Dichloro-N-[4-dimethylamino-5-(naphthalen-2-ylsulfanyl) -pyrimidin-2-yl]-benzenesulfonamide], the negative-log IC50 (pIC50) is more than 4.52.

`Cc1cc(S(=O)(=O)Nc2ccc(Sc3ccc(S(=O)(=O)N4CCCCC4)cc3)cn2)c(Cl)cc1Cl` [Compound 67, 2,4-Dichloro-5-methyl-N-{5-[4-(piperidine-1-sulfonyl) -phenylsulfanyl]-pyridin-2-yl}-benzenesulfonamide] gave a pIC50 of more than 6.00.

As to `Cc1cc(NS(=O)(=O)c2ccc(Cl)cc2Cl)ncc1Sc1ccc(S(=O)(=O)N2CCOCC2)cc1` [Compound 75, 2,4-Dichloro-N-{4-methyl-5-[4-(morpholine-4-sulfonyl) -phenylsulfanyl]-pyridin-2-yl}-benzenesulfonamide], the pIC50 was more than 6.00.

`Cc1nc(NS(=O)(=O)c2ccc(Cl)cc2Cl)ncc1Sc1ccc2ccccc2c1` [Compound 57, 2,4-Dichloro-N-[4-methyl-5-(naphthalen-2-ylsulfanyl)-pyrimidin-2-yl]-benzenesulfonamide] gave a pIC50 of more than 5.00.

As for `CC(C)c1cc(NS(=O)(=O)c2ccc(C(F)(F)F)cc2Cl)nnc1Sc1ccc(S(=O)(=O)N2CCOCC2)cc1` [Compound 135, 3-(2′-chloro-4′-trifluoromethyl)phenylsulfonylamino-5-iso-propyl-6-(4″-N-morpholinesulfonyl)phenylthiopyridazine], the pIC50 is more than 5.00.

`Cc1nc(NS(=O)(=O)c2ccc(Cl)cc2)ncc1Oc1ccc(S(=O)(=O)N2CCOCC2)cc1` [Compound 56, 4-Chloro-N-{4-methyl-5-[4-(morpholine-4-sulfonyl) -phenoxy]-pyrimidin-2-yl}-benzenesulfonamide] showed a negative logarithm of the IC50 (pIC50) of more than 4.52.

For the molecule `O=C(c1nc(NS(=O)(=O)c2ccc(C(F)(F)F)cc2Cl)ccc1Sc1ccc(S(=O)(=O)N2CCCC2)cc1)C1CC1` [Compound 98, 2-Chloro-N-{6-cyclopropanecarbonyl-5-[4-(pyrrolidine-1-sulfonyl)-phenylsulfanyl]-pyridin-2-yl}-4-trifluoromethyl-benzenesulfonamide], the pIC50 is more than 6.00.

The molecule `Cc1nc(NS(=O)(=O)c2ccc(Cl)cc2)ncc1Sc1ccc(S(=O)(=O)N2CCCCC2)cc1` [Compound 51, 4-Chloro-N-{4-methyl-5-[4-(piperidine-1-sulfonyl) -phenylsulfanyl]-pyrimidin-2-yl}-benzenesulfonamide] gave a pIC50 of more than 5.00.

Regarding `CCCCc1nc(NS(=O)(=O)c2ccc(C(F)(F)F)cc2Cl)ccc1Sc1ccc(S(=O)(=O)N2CCCCC2)cc1` [Compound 123, N-{6-Butyl-5-[4-(piperidine-1-sulfonyl)-phenylsulfanyl]-pyridin-2-yl}-2-chloro-4-trifluoromethyl-benzenesulfonamide], the pIC50 was more than 6.00.

In the case of `O=S(=O)(Nc1ccc(Sc2ccc(S(=O)(=O)N3CCOCC3)cc2)c(C(F)(F)F)n1)c1ccc(Cl)cc1Cl` [Compound 108, 2,4-Dichloro-N-{5-[4-(morpholine-4-sulfonyl)-phenylsulfanyl]-6-trifluoromethyl-pyridin-2-yl}-benzenesulfonamide], the pIC50 is more than 5.00.

In the case of `CCCOc1nc(NS(=O)(=O)c2ccc(Cl)cc2Cl)ccc1Sc1ccc(S(=O)(=O)N2CCCCC2)cc1` [Compound 111, 2,4-Dichloro-N-{5-[4-(piperidine-1-sulfonyl)-phenylsulfanyl]-6-propoxy-pyridin-2-yl}-benzenesulfonamide], the pIC50 was more than 5.00.

Molecule `Cc1nc(NS(=O)(=O)c2ccc(Cl)cc2Cl)ncc1Sc1ccc(S(=O)(=O)N2CCOCC2)cc1` [Compound 52, 2,4-Dichloro-N-{4-methyl-5-[4-(morpholine-4-sulfonyl) -phenylsulfanyl]-pyrimidin-2-yl}-benzenesulfonamide] gave a pIC50 of more than 5.00.

In turn, `CCCNc1nc(NS(=O)(=O)c2ccc(Cl)cc2)ncc1Sc1ccc(S(=O)(=O)N2CCCCC2)cc1` [Compound 22, 4-Chloro-N-{5-[4-(piperidine-1-sulfonyl)-phenylsulfanyl]-4-propylamino-pyrimidin-2-yl}-benzenesulfonamide] had a pIC50 of more than 6.00.

Consider `CON(C)C(=O)c1nc(NS(=O)(=O)c2ccc(Cl)cc2Cl)ccc1Sc1ccc(S(=O)(=O)N2CCCCC2)cc1` [Compound 72, 6-(2,4-Dichloro-benzenesulfonylamino)-3-[4-(piperidine-1-sulfonyl)-phenylsulfanyl]-pyridine-2-carboxylic acid methoxy-methyl-amide], for which the pIC50 is more than 6.00.

`Cc1nc(NS(=O)(=O)c2ccc(Cl)cc2Cl)ccc1Sc1ccc(S(=O)(=O)N2CCCCC2)cc1` [Compound 65, 2,4-Dichloro-N-{6-methyl-5-[4-(piperidine-1-sulfonyl) -phenylsulfanyl]-pyridin-2-yl}-benzenesulfonamide] showed a pIC50 of more than 6.00.
